Laboratory results: patent publication US9642831B2, “Substituted chromanes and method of use” (AbbVie S.á.r.l., priority 2014, dated 2017)
pEC50: −log10 of the molar value.

Target: F508delCFTR (Homo sapiens, UniProt P13569, DEL508-508)
Experiment: Cell Surface Expression-Horse Radish Peroxidase (CSE-HRP) assay
Type: cell-based
Set-up: expressed in transfected cells; host or cells: CFBE41o- human lung derived epithelial cell line, doxycycline-inducible
Conditions: CFBE4lo-F508delCFTR-HRP cells; for pEC50: 18-24 hours at 33° C., 8-point curve, highest concentration 20 μM, luminescence readout; for Emax: maximum % activity at any tested concentration, normalized to on-plate positive control (3 μM Example 1)
Source text: Cell Surface Expression-Horse Radish Peroxidase (CSE-HRP) Assay:
A cellular assay for measuring the F508delCFTR cell surface expression after correction with test compounds was developed in human lung derived epithelial cell line (CFBE4lo-) (Veit G et al, (2012) Mol Biol Cell. 23(21): 4188-4202). This was achieved by expressing the F508delCFTR mutation along with a horseradish peroxidase (HRP) in the fourth exofacial loop and then measuring the HRP activity using luminescence readout from these cells, CFBE4lo-F508delCFTR-HRP, that were incubated overnight with the test corrector compounds. Briefly, for this primary assay, the CFBE4lo-F508delCFTR-HRP cells were plated in 384-well plates (Greiner Bio-one; Cat 781080) at 4,000 cells/well along with 0.5 μg/mL doxycycline to induce the F508delCFTR-HRP expression and further incubated at 37° C., 5% CO2 for 72 hours. The test compounds were then added at the required concentrations and further incubated for 18-24 hours at 33° C. The highest concentration tested was 20 μM with an 8-point concentration response curve using a 3-fold dilution. Three replicate plates were run to determine one EC50. All plates contained negative controls (dimethyl sulfoxide, DMSO) and positive controls (3 μM of 3-[(2R,4R)-4-({[1-(2,2-difluoro-1,3-benzodioxol-5-yl)cyclopropyl]carbonyl}amino)-7-methoxy-3,4-dihydro-2H-chromen-2-yl]benzoic acid) as well as on-plate concentration response of the positive control. Post incubation, the plates were washed 5× times with Dulbecco's phosphate buffered saline (DPBS), followed by the addition of the HRP substrate, luminol (50 μL), and measuring the HRP activity using luminescence readout on EnVision® Multilabel Plate Reader (Perkin Elmer; product number 2104-0010). The raw counts from the experiment are analyzed using Accelrys® Assay Explorer v3.3.
Z′ greater than 0.5 was used as passing quality control criteria for the plates.
The Z′ is defined as: 1−[3*SDPositive Control+3*SDNegative Control/Absolute(MeanPositive Control−MeanNegative Control)] wherein “SD” is standard deviation.
The % activity measured at each of the 8 test concentrations of the test compound was normalized to the on-plate positive control using the following formula: % activity=[(test compound response−DMSO response)/(positive control response−DMSO response)]*100
The maximum % activity achieved for the test compound at any tested concentration is presented in Table 1 along with the EC50 calculated using the following general sigmoidal curve with variable Hill slope equation (described as Model 42 in the Accelrys® Assay Explorer v3.3 software): y=(a−d)/(1+(x/c)^b)+d
General sigmoidal curve with concentration, response, top, bottom, EC50 and Hill slope.
This model describes a sigmoidal curve with an adjustable baseline, a. The equation can be used to fit curves where response is either increasing or decreasing with respect to the independent variable, “x”.
“x” is a concentration of drug under test.
“a” is the maximum response, and “d” is the minimum response
“c” is the inflection point (EC50) for the curve. That is, “y” is halfway between the lower and upper asymptotes when x=c.
“b” is the slope-factor or Hill coefficient. The sign of b is positive when the response increases with increasing dose and is negative when the response decreases with increasing dose (inhibition).

Sequence of F508delCFTR (P13569 with tags, fused parts or gaps DEL508-508): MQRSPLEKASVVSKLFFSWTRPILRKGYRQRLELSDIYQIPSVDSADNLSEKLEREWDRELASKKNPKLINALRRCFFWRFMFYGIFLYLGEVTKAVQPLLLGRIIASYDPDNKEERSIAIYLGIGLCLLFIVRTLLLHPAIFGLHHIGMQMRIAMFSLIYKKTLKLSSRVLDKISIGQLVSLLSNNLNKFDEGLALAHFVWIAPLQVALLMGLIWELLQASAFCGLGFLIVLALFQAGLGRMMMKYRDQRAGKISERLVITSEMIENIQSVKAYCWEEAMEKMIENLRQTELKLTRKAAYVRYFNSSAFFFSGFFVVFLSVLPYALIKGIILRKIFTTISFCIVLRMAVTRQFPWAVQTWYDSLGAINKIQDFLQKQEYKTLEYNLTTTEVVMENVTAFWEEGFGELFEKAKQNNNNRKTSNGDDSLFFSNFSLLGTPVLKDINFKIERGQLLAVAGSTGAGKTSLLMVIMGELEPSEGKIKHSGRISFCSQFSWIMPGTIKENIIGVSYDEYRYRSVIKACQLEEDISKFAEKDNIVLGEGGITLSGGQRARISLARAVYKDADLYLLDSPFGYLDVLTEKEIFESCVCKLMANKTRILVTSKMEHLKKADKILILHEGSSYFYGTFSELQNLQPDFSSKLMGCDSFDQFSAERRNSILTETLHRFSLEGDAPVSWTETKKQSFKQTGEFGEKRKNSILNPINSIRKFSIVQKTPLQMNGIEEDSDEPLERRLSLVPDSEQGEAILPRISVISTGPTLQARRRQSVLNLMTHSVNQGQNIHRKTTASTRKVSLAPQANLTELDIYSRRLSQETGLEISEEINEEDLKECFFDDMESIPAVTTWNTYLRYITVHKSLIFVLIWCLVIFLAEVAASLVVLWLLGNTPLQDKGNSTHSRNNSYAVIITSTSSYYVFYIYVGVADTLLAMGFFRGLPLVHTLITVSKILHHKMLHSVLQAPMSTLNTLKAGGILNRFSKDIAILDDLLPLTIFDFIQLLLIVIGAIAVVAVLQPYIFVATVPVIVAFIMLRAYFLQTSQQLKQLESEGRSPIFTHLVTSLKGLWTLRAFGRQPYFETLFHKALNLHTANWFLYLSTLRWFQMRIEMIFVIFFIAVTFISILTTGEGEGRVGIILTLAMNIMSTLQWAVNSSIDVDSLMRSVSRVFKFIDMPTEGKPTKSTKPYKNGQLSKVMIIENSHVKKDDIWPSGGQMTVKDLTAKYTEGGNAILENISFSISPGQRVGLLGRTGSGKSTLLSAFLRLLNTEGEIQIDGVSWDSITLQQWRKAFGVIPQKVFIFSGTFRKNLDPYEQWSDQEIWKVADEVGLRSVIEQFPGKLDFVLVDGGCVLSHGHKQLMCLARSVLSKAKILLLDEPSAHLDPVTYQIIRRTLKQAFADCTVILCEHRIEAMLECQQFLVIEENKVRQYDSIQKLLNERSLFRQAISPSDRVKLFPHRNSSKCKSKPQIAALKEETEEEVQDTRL

Compound | pEC50 | Emax [%]
COc1ccc2c(c1)O[C@@H](C(=O)NC1(C(F)(F)F)COC1)C[C@H]2NC(=O)C1(c2ccc3c(c2)OC(F)(F)O3)CC1 (racemic) [Example 173, rac-(2R,4R)-4-({[1-(2,2-difluoro-1,3-benzodioxol-5-yl)cyclopropyl]carbonyl}amino)-7-methoxy-N-[3-(trifluoromethyl)oxetan-3-yl]-3,4-dihydro-2H-chromene-2-carboxamide] | 5.67 | 27
COc1ccc2c(c1)O[C@@H](C(=O)N1CCN(CCO)CC1)C[C@@H]2NC(=O)C1(c2ccc3c(c2)OC(F)(F)O3)CC1 (racemic) [Example 187, rac-1-(2,2-difluoro-1,3-benzodioxol-5-yl)-N-[(2R,4S)-2-{[4-(2-hydroxyethyl)piperazin-1-yl]carbonyl}-7-methoxy-3,4-dihydro-2H-chromen-4-yl]cyclopropanecarboxamide] | 5.71 | 76
O=C(NC1CC(c2ccccc2Cl)Oc2ccccc21)C1(c2ccc3c(c2)OC(F)(F)O3)CC1 (stereo not drawn) [Example 65, N-[2-(2-chlorophenyl)-3,4-dihydro-2H-chromen-4-yl]-1-(2,2-difluoro-1,3-benzodioxol-5-yl)cyclopropanecarboxamide] | 5.00 | 45
Cc1ccc2c(c1)O[C@@H](c1cccc(C(=O)N3CCOC(CO)C3)c1)C[C@H]2NC(=O)C1(c2ccc3c(c2)OC(F)(F)O3)CC1 (stereo partly drawn) [Example 53, 1-(2,2-difluoro-1,3-benzodioxol-5-yl)-N-[(2R,4R)-2-(3-{[2-(hydroxymethyl)morpholin-4-yl]carbonyl}phenyl)-7-methyl-3,4-dihydro-2H-chromen-4-yl]cyclopropanecarboxamide] | 5.75 | 90
CS(=O)(=O)N1CC2(CC(NC(=O)C3(c4ccc5c(c4)OC(F)(F)O5)CC3)c3ccc(F)cc3O2)C1 (stereo not drawn) [Example 104, 1-(2,2-difluoro-1,3-benzodioxol-5-yl)-N-[7′-fluoro-1-(methylsulfonyl)-3′,4′-dihydrospiro[azetidine-3,2′-chromen]-4′-yl]cyclopropanecarboxamide] | 5.18 | 49
C[C@@]1(C(F)F)C[C@@H](NC(=O)C2(c3ccc4c(c3)OC(F)(F)O4)CC2)c2ccccc2O1 [Example 82, 1-(2,2-difluoro-1,3-benzodioxol-5-yl)-N-[(2S,4R)-2-(difluoromethyl)-2-methyl-3,4-dihydro-2H-chromen-4-yl]cyclopropanecarboxamide] | 5.57 | 97
Cc1ccc2c(c1)O[C@@H](c1cccc(C(=O)N3CC(C)(CO)C3)c1)C[C@H]2NC(=O)C1(c2ccc3c(c2)OC(F)(F)O3)CC1 [Example 55, 1-(2,2-difluoro-1,3-benzodioxol-5-yl)-N-[(2R,4R)-2-(3-{[3-(hydroxymethyl)-3-methylazetidin-1-yl]carbonyl}phenyl)-7-methyl-3,4-dihydro-2H-chromen-4-yl]cyclopropanecarboxamide] | 5.68 | 101
COc1ccc2c(c1)O[C@@H](C(=O)NC1(C(F)(F)F)COC1)C[C@@H]2NC(=O)C1(c2ccc3c(c2)OC(F)(F)O3)CC1 (racemic) [Example 192, rac-(2R,4S)-4-({[1-(2,2-difluoro-1,3-benzodioxol-5-yl)cyclopropyl]carbonyl}amino)-7-methoxy-N-[3-(trifluoromethyl)oxetan-3-yl]-3,4-dihydro-2H-chromene-2-carboxamide] | 5.36 | 29
COC(=O)c1cccc([C@H]2C[C@@H](NC(=O)C3(c4ccc5c(c4)OC(F)(F)O5)CC3)c3ccc(F)nc3O2)c1 (racemic) [Example 113, methyl rac-3-[(2R,4R)-4-({[1-(2,2-difluoro-1,3-benzodioxol-5-yl)cyclopropyl]carbonyl}amino)-7-fluoro-3,4-dihydro-2H-pyrano[2,3-b]pyridin-2-yl]benzoate] | 5.45 | 49
O=C(O)c1cccc([C@H]2C[C@@H](NC(=O)C3(c4ccc5c(c4)OC(F)(F)O5)CC3)c3ccc(Cl)nc3O2)c1 (racemic) [Example 114, rac-3-[(2R,4R)-7-chloro-4-({[1-(2,2-difluoro-1,3-benzodioxol-5-yl)cyclopropyl]carbonyl}amino)-3,4-dihydro-2H-pyrano[2,3-b]pyridin-2-yl]benzoic acid] | 5.32 | 61
COC(=O)c1cccc([C@H]2C[C@H](NC(=O)C3(c4ccc5c(c4)OC(F)(F)O5)CC3)c3ccc(F)nc3O2)c1 (racemic) [Example 118, methyl rac-3-[(2R,4S)-4-({[1-(2,2-difluoro-1,3-benzodioxol-5-yl)cyclopropyl]carbonyl}amino)-7-fluoro-3,4-dihydro-2H-pyrano[2,3-b]pyridin-2-yl]benzoate] | 5.09 | 25

Other lines, results leading:

pEC50 | Emax [%] | Compound
5.76 | 82 | COC(=O)c1cccc([C@H]2C[C@@H](NC(=O)C3(c4ccc5c(c4)OC(F)(F)O5)CC3)c3ccc(F)cc3O2)c1 [Example 39, methyl 3-[(2R,4R)-4-({[1-(2,2-difluoro-1,3-benzodioxol-5-yl)cyclopropyl]carbonyl}amino)-7-fluoro-3,4-dihydro-2H-chromen-2-yl]benzoate]
5.80 | 57 | COc1ccc2c(c1)O[C@@H](C(=O)NC1c3ccccc3CC1O)C[C@H]2NC(=O)C1(c2ccc3c(c2)OC(F)(F)O3)CC1 (mixture of isomers) [Example 181, rac-(2R,4R)-4-({[1-(2,2-difluoro-1,3-benzodioxol-5-yl)cyclopropyl]carbonyl}amino)-N-(2-hydroxy-2,3-dihydro-1H-inden-1-yl)-7-methoxy-3,4-dihydro-2H-chromene-2-carboxamide]
5.86 | 79 | COc1ccc2c(c1)OC(C1CCCO1)CC2NC(=O)C1(c2ccc3c(c2)OC(F)(F)O3)CC1 (stereo not drawn) [Example 126, 1-(2,2-difluoro-1,3-benzodioxol-5-yl)-N-[7-methoxy-2-(tetrahydrofuran-2-yl)-3,4-dihydro-2H-chromen-4-yl]cyclopropanecarboxamide]
5.94 | 67 | COc1ccc2c(c1)O[C@@H](C(=O)N(C)CC(O)c1ccccc1)C[C@H]2NC(=O)C1(c2ccc3c(c2)OC(F)(F)O3)CC1 (mixture of isomers) [Example 168, rac-(2R,4R)-4-({[1-(2,2-difluoro-1,3-benzodioxol-5-yl)cyclopropyl]carbonyl}amino)-N-(2-hydroxy-2-phenylethyl)-7-methoxy-N-methyl-3,4-dihydro-2H-chromene-2-carboxamide]
6.07 | 78 | Cc1ccc2c(c1)O[C@@H](c1cccc(C(=O)NC3CCC(C)(C(=O)O)C3)c1)C[C@H]2NC(=O)C1(c2ccc3c(c2)OC(F)(F)O3)CC1 (stereo partly drawn) [Example 43, 3-({3-[(2R,4R)-4-({[1-(2,2-difluoro-1,3-benzodioxol-5-yl)cyclopropyl]carbonyl}amino)-7-methyl-3,4-dihydro-2H-chromen-2-yl]benzoyl}amino)-1-methylcyclopentanecarboxylic acid]
5.97 | 66 | COc1ccc2c(c1)O[C@@H](C(=O)N(CCO)Cc1ccccc1)C[C@H]2NC(=O)C1(c2ccc3c(c2)OC(F)(F)O3)CC1 (racemic) [Example 167, rac-(2R,4R)—N-benzyl-4-({[1-(2,2-difluoro-1,3-benzodioxol-5-yl)cyclopropyl]carbonyl}amino)-N-(2-hydroxyethyl)-7-methoxy-3,4-dihydro-2H-chromene-2-carboxamide]
5.88 | 89 | COC(=O)c1ccc2c(c1)OCCC2NC(=O)C1(c2ccc3c(c2)OC(F)(F)O3)CC1 (stereo not drawn) [Example 45, methyl 4-({[1-(2,2-difluoro-1,3-benzodioxol-5-yl)cyclopropyl]carbonyl}amino)-3,4-dihydro-2H-chromene-7-carboxylate]
